Consider 9 compounds from ChEMBL document CHEMBL1152063, “4-Substituted proline derivatives that inhibit angiotensin converting enzyme and neutral endopeptidase 24.11” (Bioorg Med Chem Lett, 1994).

In assay [1] the target is Angiotensin-converting enzyme (Homo sapiens, UniProt P12821). In words: In vitro inhibition against angiotensin converting enzyme (ACE).
The next assay has as its target T1, Neprilysin (Rattus norvegicus, UniProt P07861).
T1 sequence (P07861 whole entry): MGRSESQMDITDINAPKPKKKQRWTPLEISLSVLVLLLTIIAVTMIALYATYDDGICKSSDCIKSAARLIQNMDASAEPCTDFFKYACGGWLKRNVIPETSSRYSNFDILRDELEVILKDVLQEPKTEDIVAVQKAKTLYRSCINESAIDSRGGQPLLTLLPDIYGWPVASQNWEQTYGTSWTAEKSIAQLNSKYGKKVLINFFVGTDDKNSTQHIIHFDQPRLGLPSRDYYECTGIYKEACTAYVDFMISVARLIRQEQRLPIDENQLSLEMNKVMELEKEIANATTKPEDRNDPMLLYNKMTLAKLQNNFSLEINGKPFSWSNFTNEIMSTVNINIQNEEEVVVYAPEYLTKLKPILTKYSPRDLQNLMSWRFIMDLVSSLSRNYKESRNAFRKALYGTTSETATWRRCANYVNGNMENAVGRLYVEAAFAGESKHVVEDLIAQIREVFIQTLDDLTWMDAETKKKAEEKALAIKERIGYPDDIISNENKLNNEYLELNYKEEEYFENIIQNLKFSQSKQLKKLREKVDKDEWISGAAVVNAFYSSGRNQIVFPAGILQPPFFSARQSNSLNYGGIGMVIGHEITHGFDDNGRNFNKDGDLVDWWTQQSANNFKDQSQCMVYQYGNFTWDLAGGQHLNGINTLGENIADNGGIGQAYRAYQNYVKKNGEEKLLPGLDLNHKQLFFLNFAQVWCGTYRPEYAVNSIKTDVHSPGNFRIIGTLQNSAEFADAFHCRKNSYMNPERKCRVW
In words: In vitro inhibition against neutral endopeptidase 24.11 (NEP) in rat kidney cortex membrane. It is filed as cell membranes.

Angiotensin-converting enzyme, sequence (P12821 whole entry): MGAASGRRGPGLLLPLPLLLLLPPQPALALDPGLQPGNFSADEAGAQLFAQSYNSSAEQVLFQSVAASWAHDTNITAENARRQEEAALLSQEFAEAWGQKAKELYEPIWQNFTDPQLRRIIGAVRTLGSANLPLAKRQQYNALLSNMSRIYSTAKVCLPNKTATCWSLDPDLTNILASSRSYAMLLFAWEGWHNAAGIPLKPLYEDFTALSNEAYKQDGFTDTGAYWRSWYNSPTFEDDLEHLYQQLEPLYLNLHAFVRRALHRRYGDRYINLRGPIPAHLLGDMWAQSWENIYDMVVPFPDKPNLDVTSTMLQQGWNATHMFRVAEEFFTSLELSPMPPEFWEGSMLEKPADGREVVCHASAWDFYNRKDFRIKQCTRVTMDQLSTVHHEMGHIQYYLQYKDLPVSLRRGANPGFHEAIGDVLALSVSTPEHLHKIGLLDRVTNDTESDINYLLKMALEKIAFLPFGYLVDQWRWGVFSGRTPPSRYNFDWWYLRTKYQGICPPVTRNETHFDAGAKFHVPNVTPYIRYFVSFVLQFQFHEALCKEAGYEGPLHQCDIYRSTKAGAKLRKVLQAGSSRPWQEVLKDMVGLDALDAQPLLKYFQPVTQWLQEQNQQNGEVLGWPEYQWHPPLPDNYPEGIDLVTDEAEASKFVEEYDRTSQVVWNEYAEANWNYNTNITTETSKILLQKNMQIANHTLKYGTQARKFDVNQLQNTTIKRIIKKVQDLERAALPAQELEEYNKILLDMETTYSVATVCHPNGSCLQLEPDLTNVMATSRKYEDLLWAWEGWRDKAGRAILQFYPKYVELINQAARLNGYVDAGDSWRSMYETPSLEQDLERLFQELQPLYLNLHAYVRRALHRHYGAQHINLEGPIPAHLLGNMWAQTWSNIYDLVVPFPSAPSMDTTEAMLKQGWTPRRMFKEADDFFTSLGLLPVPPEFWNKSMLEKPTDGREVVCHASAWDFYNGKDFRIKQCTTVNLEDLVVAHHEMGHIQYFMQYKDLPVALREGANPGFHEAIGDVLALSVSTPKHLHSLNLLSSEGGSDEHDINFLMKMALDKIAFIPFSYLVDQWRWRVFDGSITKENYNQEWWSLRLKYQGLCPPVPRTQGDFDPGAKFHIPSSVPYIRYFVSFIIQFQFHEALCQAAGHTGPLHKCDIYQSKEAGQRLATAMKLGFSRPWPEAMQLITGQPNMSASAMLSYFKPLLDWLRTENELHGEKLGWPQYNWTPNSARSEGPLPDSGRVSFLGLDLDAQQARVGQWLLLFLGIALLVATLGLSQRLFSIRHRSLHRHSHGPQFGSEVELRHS

For orientation: IC50 means the concentration that gives 50% inhibition. A low value points to greater potency in that assay. For `C[C@H](N[C@@H](CCc1ccccc1)C(=O)O)C(=O)N1C[C@@H](NC(=O)C(CS)Cc2ccccc2)C[C@H]1C(=O)O` (some centres not stated), the IC50 worked out at 0.042 µM in assay [1] and 0.149 µM against Neprilysin.
The matching figures for `C[C@H](N[C@@H](CCc1ccccc1)C(=O)O)C(=O)N1C[C@@H](NC(=O)NC(CS)Cc2ccccc2)C[C@H]1C(=O)O` (some centres not stated): 0.043 µM and 1.24 µM.
The matching figures for `C[C@H](CS)C(=O)N1C[C@@H](NC(=O)NC(CS)Cc2ccccc2)C[C@H]1C(=O)O` (some centres not stated): 0.147 µM and 0.118 µM.
For `C[C@H](N[C@@H](CCc1ccccc1)C(=O)O)C(=O)N1C[C@H](OC(=O)NC(CS)Cc2ccccc2)C[C@H]1C(=O)O` (some centres not stated) the same measures were 0.506 µM and more than 1 µM.
As for `C[C@H](CS)C(=O)N1C[C@H](NC(=O)C(CS)Cc2ccccc2)C[C@H]1C(=O)O` (some centres not stated), the IC50 in assay [1] amounted to 0.018 µM; at Neprilysin, 0.849 µM.
Consider `C[C@H](CS)C(=O)N1C[C@@H](NC(=O)C(CS)Cc2ccccc2)C[C@H]1C(=O)O` (some centres not stated), for which the IC50 in assay [1] was determined as 0.087 µM; against Neprilysin it was 0.014 µM.
For `C[C@H](N[C@@H](CCc1ccccc1)C(=O)O)C(=O)N1C[C@H](NC(=O)C(CS)Cc2ccccc2)C[C@H]1C(=O)O` (some centres not stated) the same measures were 0.253 µM and more than 1 µM.
For `C[C@H](CS)C(=O)N1C[C@@H](NC(=O)C(CS)Cc2ccc(-c3ccccc3)cc2)C[C@H]1C(=O)O` (some centres not stated) the same measures were 0.696 µM and 0.02 µM.
For orientation: Ki means a dissociation constant, usually derived from enzyme kinetics or from competition with a known ligand. Lower therefore signals a stronger hold on the target. In turn, `O=C(O)CCCCCCNC(=O)C(CS)Cc1ccccc1` (configuration not stated) yielded a Ki on Neprilysin of 0.026 µM.
